Key:
[1] = tested on: Actinomyces viscosus (A. v) ATCC 27044; assay: MIC by broth micro-dilution against Actinomyces viscosus; format: cell-based; details: 37 °C, 18-24 h, no unit in table, dilution series 250-0.12 mg/L (ceiling 250 ppm)
Description: A single colony was picked from the Trypticase Digested Soybean peptone agar blood plate (TSA5B) of ordinarily stored bacteria species and used to inoculate corresponding broth culture medium, which was cultivated in a microaerobic environment (P.g needs anaerobic cultivation) with 95% air, 5% CO2 at 37.0° C.±1.0° C., […] Then corresponding broth cultivate medium was used to adjust the turbidity of the bacteria suspension to 0.5^# McFarland standard, equivalent to 1.0×10^8 CFU/mL.
(§1) The operating steps were:
(§2) a. Preparation of the stock solution of antibacterial pharmaceutical: 1% stock solution of various antibacterial pharmaceuticals was prepared with 100% pure ethanol as solvent. The prepared stock solution was filtered to eliminate bacteria, and was distributed into small portions to be used.
(§3) b. Range of measured concentration: the present experiment used 250 ppm as the ceiling measured concentration of the anti-bacterial pharmaceutical.
(§4) c. Measuring method: micro-dilution method. […]
(§5) The bacteria to be tested and standard bacteria were prepared as above. […] 0.12 mg/L, and the final inoculation quantity was about […] or 5×10^6 bacteria in each well. […]

IL-1β = assay: LUMINEX analysis of IL-1β in KB cell supernatant; format: cell-based, human; details: concentration not given
Description: (§6) Anti-inflammatory activity was assessed using the KB cell (the epidermis cancer cell in human oral cavity). During the experiment, the KB cell inoculated in the cultivating plate was treated with or without positive control or compound 5-hydroxymorusin. After the treatment, the supernatant of the cultivating medium was collected and stored in −80° C. refrigerators. Inflammation was assessed by measuring several inflammation markers: Prostaglandin E2 (PGE2) in the supernatant was detected by Enzyme-linked immunsorbent assay, and LUMINEX™ multifunctional liquid-phase chip analysis system was used for the detection of granulocyte monocyte colony stimulating factor (GM-CSF), tumor necrosis factor-alpha (TNF-α), and interleukins 1-beta and 6 (IL-1β and IL-6).
(§7) LUMINEX™ multifunctional liquid-phase chip analyses of GM-CSF, TNF-α, IL-1 and IL-6: The 96-well plate was enclosed with enclosing liquid for 30 minutes. Fluorescent microspheres were added into the 96-well plate after dilution. The standard and the samples to be measured were added, and incubated overnight at 4° C. The next day, the supernatant was discarded and 50 μL GM-CSF, TNF-α, IL-1β and IL-6 antibodies were added to each well. After being rinsed for 4 times, the 96-well plate was placed in a shaking table, which was in ambient temperature, to keep the plate away from light for 1 hour. […]

[2] = tested on: Porphyromonas gingivalis (P. g) ATCC 33277; assay: MIC by broth micro-dilution against Porphyromonas gingivalis; format: cell-based; details: anaerobic, 37 °C, 18-24 h, no unit in table, dilution series 250-0.12 mg/L (ceiling 250 ppm)
Description: (§8) A single colony was picked from the Trypticase Digested Soybean peptone agar blood plate (TSA5B) of ordinarily stored bacteria species and used to inoculate corresponding broth culture medium, which was cultivated in a microaerobic environment (P.g needs anaerobic cultivation) with 95% air, 5% CO2 at 37.0° C.±1.0° C., wherein S.m was cultivated for 18-24 h, and the remaining two species were cultivated for 40-48 h. Then corresponding broth cultivate medium was used to adjust the turbidity of the bacteria suspension to 0.5^# McFarland standard, equivalent to 1.0×10^8 CFU/mL.
as §1, §2, §3, §4, §5

[3] = tested on: Streptococcus mutans (S. m) ATCC 25175; assay: MIC by broth micro-dilution against Streptococcus mutans; format: cell-based; details: 37 °C, 18-24 h, no unit in table, dilution series 250-0.12 mg/L (ceiling 250 ppm)
Description: as §8, §1, §2, §3, §4, §5

TNF-α = assay: LUMINEX analysis of TNF-α in KB cell supernatant; format: cell-based, human; details: concentration not given
Description: as §6, §7

GM-CSF = assay: LUMINEX analysis of GM-CSF in KB cell supernatant; format: cell-based, human; details: concentration not given
Description: as §6, §7

IL-6 = assay: LUMINEX analysis of IL-6 in KB cell supernatant; format: cell-based, human; details: concentration not given
Description: as §6, §7

Oc1cc(Cl)ccc1Oc1ccc(Cl)cc1Cl [Triclosan]
minimum inhibitive concentration (MIC), A. v ATCC 27044 [1]: 3.9 | anti-inflammatory effect, IL-1β (the larger the value, the stronger the anti-inflammatory ability) (IL-1β): 7% | minimum inhibitive concentration (MIC), P. g ATCC 33277 [2]: 7.8 | minimum inhibitive concentration (MIC), S. m ATCC 25175 [3]: 3.9 | anti-inflammatory effect, TNF-α (the larger the value, the stronger the anti-inflammatory ability) (TNF-α): 81% | anti-inflammatory effect, GM-CSF (the larger the value, the stronger the anti-inflammatory ability) (GM-CSF): 5% | anti-inflammatory effect, IL-6 (the larger the value, the stronger the anti-inflammatory ability) (IL-6): 31%

From US20080287527A1, “Pharmaceuticals for treating or preventing oral diseases” (HAWLEY & HAZEL (BVI) COMPANY LIMITED, priority 2007, published 2008)
